From ChEMBL document CHEMBL1201862, “PubChem BioAssay data set” (2004)
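Where inhibition never reached the appropriate level, the endpoint shown equals the highest concentration tested. Otherwise, values were interpolated linearly from a five-concentration, 48-hour dose response in 96-well plates. GI50 marks 50% less growth.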 The source made the active and inactive calls. Cut-off read from the data, not from the text of the source: active = GI50 up to about 1.1 µM and inactive = higher. Where a SMILES comes first, the peptide text is derived from it. [ ]: non-standard residue; d: D form. Ac5c = NC1(C(=O)O)CCCC1

Columns and labels:
Assay in all cases: inhibition of tumour cell growth, NCI panel, 48 h
[1] = test system: NCI-H460
[2] = test system: K562
[3] = test system: MOLT-4
[4] = test system: SNB-19
[5] = test system: KM12
[6] = test system: LOX IMVI
[7] = test system: SR
[8] = test system: IGROV-1
[9] = test system: ACHN
[10] = test system: EKVX
[11] = test system: SF-539
[12] = test system: SK-MEL-5
[13] = test system: COLO 205
[14] = test system: HT-29
[15] = test system: NCI-H226
[16] = test system: HCT-116
[17] = test system: UACC-62
[18] = test system: A549
[19] = test system: SW-620

Measured: GI50

Cc1cc2c(C)n(Cc3ccc(Cl)cc3Cl)nc2c(C#N)c1C
inactive: [1] 35.9 µM | [2] > 100 µM | [3] > 100 µM | [4] 15.7 µM | [5] > 100 µM | [6] 49.5 µM | [7] > 100 µM | [8] 41 µM | [9] 49 µM | [10] 57.1 µM | [11] 27.2 µM | [12] 85.3 µM | [13] > 95.5 µM | [14] 55.5 µM | [15] > 42.2 µM | [16] 29.8 µM | [17] > 100 µM | [18] 28.2 µM | [19] > 100 µM

Clc1cccc(C2SCc3nc4ccccc4n32)c1 (configuration not stated)
inactive: [1] 27.8 µM | [2] 14.9 µM | [3] 23.1 µM | [5] 18.8 µM | [6] 15.2 µM | [7] 16.3 µM | [8] 22.3 µM | [9] 18.4 µM | [10] 17.5 µM | [11] 21.1 µM | [13] 4.79 µM | [14] 23.7 µM | [15] 12.8 µM | [17] 13.8 µM | [18] 42.9 µM | [19] 32.9 µM

COc1ccc(OC)c(NC(=O)C(=O)C(C(C)=O)c2nc3ccc(Cl)cc3nc2O)c1 (configuration not stated)
inactive: [1] > 50 µM | [2] > 50 µM | [3] > 50 µM | [4] > 50 µM | [5] > 50 µM | [6] > 50 µM | [8] > 50 µM | [9] > 50 µM | [10] > 50 µM | [11] > 50 µM | [12] > 50 µM | [13] > 50 µM | [14] > 50 µM | [15] > 50 µM | [16] > 50 µM | [17] > 50 µM | [18] > 50 µM | [19] > 50 µM

COC1(OC)CC2CCCCC2=C(C)N1S(=O)(=O)c1ccccc1 (configuration not stated)
inactive: [1] > 100 µM | [2] > 100 µM | [3] > 10 µM | [4] > 100 µM | [5] > 100 µM | [6] > 100 µM | [7] > 100 µM | [8] > 100 µM | [9] > 100 µM | [10] > 100 µM | [11] > 100 µM | [12] > 100 µM | [13] > 100 µM | [14] > 100 µM | [15] > 100 µM | [16] > 100 µM | [17] > 100 µM | [18] > 100 µM | [19] > 100 µM

[N-]=[N+]=Nc1nnc(CCCCc2nnc(N=[N+]=[N-])o2)o1
inactive: [1] > 100 µM | [2] > 100 µM | [3] > 100 µM | [4] > 100 µM | [5] 91.4 µM | [6] > 100 µM | [9] > 100 µM | [10] > 100 µM | [11] > 100 µM | [12] > 100 µM | [13] > 100 µM | [14] > 100 µM | [15] > 100 µM | [16] > 100 µM | [17] > 100 µM | [18] > 100 µM | [19] > 100 µM

COC(=O)/C=C(C)/C=C/C1OC(C)OCC1O (configuration not stated)
inactive: [1] > 100 µM | [2] > 100 µM | [3] > 100 µM | [4] > 100 µM | [5] > 100 µM | [6] > 100 µM | [8] > 100 µM | [9] > 100 µM | [10] > 100 µM | [11] > 100 µM | [12] > 100 µM | [13] > 100 µM | [14] > 100 µM | [15] > 100 µM | [17] > 100 µM | [18] > 100 µM | [19] > 100 µM

COC(=O)C(=O)C(C(=O)C(=O)Nc1cc([N+](=O)[O-])ccc1[N+](=O)[O-])c1nc2ccc(C(=O)c3ccccc3)cc2nc1O (configuration not stated)
inactive: [1] 35.4 µM | [2] 21.3 µM | [3] 18.1 µM | [4] 50.4 µM | [5] 28.9 µM | [6] 19.9 µM | [7] 21.7 µM | [8] 33.6 µM | [9] 34.8 µM | [10] 39.3 µM | [11] 35.2 µM | [12] 18.3 µM | [13] 32.6 µM | [14] 34 µM | [15] 25.4 µM | [16] 40.6 µM | [18] 43.8 µM | [19] 28.4 µM

Nc1nc2c(ncn2Cc2ccccc2CCO)c(=O)[nH]1
inactive: [1] > 100 µM | [2] > 100 µM | [3] > 100 µM | [4] > 100 µM | [5] > 100 µM | [6] > 100 µM | [8] > 100 µM | [9] > 100 µM | [10] > 100 µM | [12] > 100 µM | [13] > 100 µM | [14] > 100 µM | [15] 41 µM | [17] > 100 µM | [18] > 100 µM | [19] > 100 µM

Cc1csc2nc(-c3ccncc3)cn12
inactive: [1] > 43.5 µM | [2] > 44 µM | [3] > 100 µM | [4] > 100 µM | [5] > 100 µM | [6] > 43.4 µM | [7] 24.3 µM | [8] > 100 µM | [9] > 100 µM | [10] > 59.7 µM | [11] > 44 µM | [12] > 100 µM | [13] > 45.5 µM | [14] > 100 µM | [15] > 100 µM | [16] > 42.2 µM | [17] > 100 µM | [18] > 100 µM | [19] > 21.1 µM

N#Cc1cc([N+](=O)[O-])ccc1NC(=O)C(F)(F)F
inactive: [1] > 42.3 µM | [2] > 60.5 µM | [3] > 100 µM | [4] > 100 µM | [5] > 100 µM | [6] > 34.7 µM | [7] > 100 µM | [8] > 100 µM | [9] > 100 µM | [10] > 100 µM | [11] > 100 µM | [12] > 100 µM | [13] 20.7 µM | [14] > 45.5 µM | [15] > 88.7 µM | [16] > 42.9 µM | [17] > 100 µM | [18] > 74.3 µM | [19] > 40.9 µM

Cc1ccc(SC(C)/C=C/NNC2=NN=C(c3ccccc3)C(c3ccccc3)N2)cc1 (configuration not stated)
inactive: [1] 33.1 µM | [2] 36.9 µM | [3] 13.4 µM | [5] 27.5 µM | [6] 25.7 µM | [7] 11.5 µM | [8] 31.1 µM | [9] 29.6 µM | [10] 44.8 µM | [11] 34.2 µM | [12] 14.6 µM | [13] 36.1 µM | [14] 13.3 µM | [15] 29 µM | [16] 39.6 µM | [17] 14.9 µM | [18] 33.1 µM | [19] 46.5 µM

COC(=O)/C(=N/NC(C)(C)C)C(C(=O)C=C(C)C)C(=O)C(=O)Nc1ccc(Cl)cc1C (configuration not stated)
inactive: [1] > 100 µM | [2] > 100 µM | [3] > 100 µM | [4] > 100 µM | [5] > 100 µM | [7] > 100 µM | [8] > 100 µM | [9] > 100 µM | [10] > 100 µM | [11] > 100 µM | [12] > 100 µM | [13] > 100 µM | [14] > 100 µM | [15] 99.3 µM | [16] > 100 µM | [17] > 100 µM | [18] > 100 µM | [19] > 100 µM

CC1(C)OC2C(=O)OC(COCc3ccccc3)C2O1 (configuration not stated)
inactive: [1] > 100 µM | [2] > 100 µM | [3] > 100 µM | [5] > 100 µM | [6] > 100 µM | [7] 78.9 µM | [8] > 100 µM | [9] > 100 µM | [10] > 100 µM | [11] > 100 µM | [12] > 100 µM | [13] > 100 µM | [14] > 100 µM | [15] > 100 µM | [16] > 100 µM | [17] > 100 µM | [18] > 100 µM | [19] > 100 µM

COc1ccc(C2Oc3c(c(O)cc4c3[C@H](c3ccc(O)cc3O)[C@H](O)C(c3ccc(O)c(O)c3)O4)C[C@@H]2O)cc1O (some centres not stated)
inactive: [1] > 100 µM | [2] > 100 µM | [3] > 100 µM | [4] > 100 µM | [5] > 100 µM | [6] > 100 µM | [7] > 100 µM | [8] > 100 µM | [9] > 100 µM | [10] > 100 µM | [11] > 100 µM | [12] > 100 µM | [13] > 100 µM | [14] > 100 µM | [15] > 100 µM | [16] > 100 µM | [17] > 100 µM | [18] > 100 µM | [19] > 100 µM

COC(=O)C1(NC(=O)C(C)NC(=O)C(CCCCN)NC(=O)C(CC(C)C)NC(C)=O)CCCC1 (configuration not stated) (Ac-LKA[Ac5c]-OMe; configuration not given here)
inactive: [1] > 100 µM | [2] > 100 µM | [3] > 100 µM | [4] > 100 µM | [5] > 100 µM | [7] > 100 µM | [8] > 100 µM | [9] > 100 µM | [10] > 100 µM | [11] > 100 µM | [12] > 100 µM | [13] > 100 µM | [14] > 100 µM | [16] > 100 µM | [18] > 100 µM | [19] > 100 µM
